The data set is described as follows: wn = mass fraction of the nth substance listed. To be noted: 101 kPa, Liquid; for viscosity: Capillary tube (Ostwald / Ubbelohde) method.

± gives the expanded uncertainty stated by the source.

Consider `[K+].[K+].[O]=[Cr](=[O])([O-])[O-]` [potassium chromate(VI)] + O, for which the viscosity – broadly, the resistance of a fluid to flow – is 0.9285 ± 0.0077 mPa·s (298.15 K, w1 = 0.0931) and 0.7309 ± 0.0062 mPa·s (313.15 K, w1 = 0.0931). Further, the mass density (commonly the mass of a sample divided by its volume) runs as follows: (298.15 K, w1 = 0.049) 1034.6 ± 1 kg/m3; (298.15 K, w1 = 0.0538) 1038.3 ± 1 kg/m3; (298.15 K, w1 = 0.0653) 1046.8 ± 1 kg/m3.

Take `[K+].[K+].[O]=[Cr](=[O])([O-])[O][Cr](=[O])(=[O])[O-]` [potassium dichromate] + O: the viscosity is, setting by setting: (313.15 K, w1 = 0.0478) 0.6465 ± 0.0055 mPa·s; (313.15 K, w1 = 0.0906) 0.6805 ± 0.0058 mPa·s; (319.15 K, w1 = 0.155) 0.6914 ± 0.0059 mPa·s; (323.25 K, w1 = 0.172) 0.6658 ± 0.0057 mPa·s; (333.35 K, w1 = 0.214) 0.6307 ± 0.0054 mPa·s. The mass density by setting is: (313.15 K, w1 = 0.02) 1006.5 ± 1.1 kg/m3; (313.15 K, w1 = 0.05) 1026.8 ± 1.2 kg/m3; (319.15 K, w1 = 0.155) 1166.5 ± 1.4 kg/m3; (323.25 K, w1 = 0.172) 1184.2 ± 1.5 kg/m3; (333.15 K, w1 = 0.02) 997 ± 1.3 kg/m3; (333.15 K, w1 = 0.05) 1016.4 ± 1.3 kg/m3. For the same compound, the mass density (333.32 K, w1 = 0.214) is on record as 1232.1 ± 1.6 kg/m3.

For the origin of these results see the NIST ThermoML archive (doi:10.1021/je700363m).
